Measurements from ChEMBL document CHEMBL1152246, “Design, synthesis and RNase A inhibition activity of catechin and epicatechin and nucleobase chimeric molecules” (Bioorg Med Chem Lett, 2008).
Active and inactive are the calls of the source. The calls are words filed in the database; no cut-off is given here.

What was measured:
[1] = target: T1, Ribonuclease pancreatic (Homo sapiens) (UniProt P07998); test: Inhibition of RNase A assessed as degradation of 28s and 18s rRNA at 0.476 mM after 6 hrs by agarose gel based assay
T1 sequence (whole entry): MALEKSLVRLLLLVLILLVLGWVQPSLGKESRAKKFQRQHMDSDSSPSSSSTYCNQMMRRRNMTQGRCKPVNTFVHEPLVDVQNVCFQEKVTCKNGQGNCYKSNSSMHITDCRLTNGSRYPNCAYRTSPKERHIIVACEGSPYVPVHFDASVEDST

[2] = target: T1, Ribonuclease pancreatic (Homo sapiens); test: Inhibition of RNase A assessed as degradation of 28s and 18s rRNA at 0.412 mM after 6 hrs by agarose gel based assay

| SMILES | Activity [1] | Activity [2] |
| --- | --- | --- |
| Nc1ncnc2c1ncn2CCn1cc(CO[C@H]2Cc3c(O)cc(O)cc3O[C@@H]2c2ccc(O)c(O)c2)nn1 | Active | – |
| Nc1ncnc2c1ncn2CCn1cc(CO[C@@H]2Cc3c(O)cc(O)cc3O[C@@H]2c2ccc(O)c(O)c2)nn1 | Active | – |
| CCOC(=O)Cn1c(=O)c(C)cn(CCn2cc(CO[C@@H]3Cc4c(O)cc(O)cc4O[C@@H]3c3ccc(O)c(O)c3)nn2)c1=O | – | inactive |
| CCOC(=O)Cn1c(=O)c(C)cn(CCn2cc(CO[C@H]3Cc4c(O)cc(O)cc4O[C@@H]3c3ccc(O)c(O)c3)nn2)c1=O | – | inactive |
